Experimental data published in ChEMBL document CHEMBL1137096, “Optimization and metabolic stabilization of a class of nonsteroidal glucocorticoid modulators” (Bioorg Med Chem Lett, 2004).

Test: in vivo
Conditions: rat

- bioavailability: 12%
Compound: Cc1c(NS(C)(=O)=O)cccc1N(Cc1ccccc1)Cc1ccc(Oc2cccc(OCCCC(=O)NCCCC(=O)O)c2)cc1
